Experimental data taken from US20250313537A1, “BENZ[…] AND METHODS OF USE IN TREATING CANCER” (University of Cincinnati, priority 2022, published 2025).
“Also recorded” adds a separate entry of the source.

Key:
H1792 cells = experiment: In vitro viability assay (Cell Titer 96 Aqueous One), H1792; assay type: cell-based, human; conditions: H1792 cells (FIG. 6, 7A, 7B)
Experimental: (§1) Cell lines tested were purchased from the American Type Culture Collection (ATCC). Cells were maintained in Dulbecco's Modified Eagle's Medium (DMEM) (Corning) or Roswell Park Memorial Institute (RPMI) 1640 Medium (Gibco). Media for lines was supplemented with 10% (v/v) Fetal Bovine Serum (FBS) (Corning) and 100 U/mL penicillin/streptomycin (Sigma). Lines were grown at 37° C. with 5% (v/v) CO2. Cells were passaged twice a week at 1:10 ratio and reached 80 to 90% confluency between 72 and 96 hours.
(§2) For in vitro studies drug was solubilized in dimethyl sulfoxide (DMSO, 0.125%) prior to use. For mouse studies drug was solubilized in a co-solvent formulation: propylene glycol (40%); ethanol (10%); benzyl alcohol (2%); benzoic acid (2%); sodium benzoate (2%).
(§3) For cell proliferation viability studies, cells were assayed using the Cell Titer 96® Aqueous One Solution Assay (Promega). IC50 values were determined using the ‘[Inhibitor] versus normalized response’ nonlinear regression function and the log of inhibitor concentration in Prism 8 software (version 8.3.0 for MacOS).

[1] = test system: cancer cell lines A375, H1792, LN18, LLC; experiment: In vitro viability assay (Cell Titer 96 Aqueous One), cancer cell lines; assay type: cell-based, human, mouse; conditions: for cytotoxicity of NOR-variant relative to non-NOR-variant: SRE-III-35 vs TA-IV-74, TA-II-59 vs TA-II-73
Experimental: as §1, §2, §3

[2] = test system: Lewis Lung Carcinoma cells; experiment: Mitochondrial depolarization, TMRE binding by FACS; assay type: cell-based, mouse; conditions: for TMRE binding (depolarization): Lewis Lung Carcinoma cells, FACS, within 15 minutes of incubation; for shift in electric charge distribution / depolarization of cancer cells: different/disparate cancer cell types
[3] = test system: Lewis Lung Carcinoma (LLC) tumors; experiment: Bilateral flank LLC tumor growth delay in C57Bl6 mice; assay type: in vivo, mouse
Excerpt: as §2
For subcutaneous xenograft tumor growth delay experiments, black 6 mice (C57Bl6) were purchased (Charles River Laboratories) and housed at University of Cincinnati LAMS. Purchased mice were allowed to accommodate for a week prior to experiment. Mice were housed in pathogen-free rooms and clinical health evaluated weekly by veterinary staff of the University of Cincinnati LAMS. All animal studies were conducted in accordance with approval of a University of Cincinnati IACUC.
LLC1 cells (a million) grown in RPMI medium were washed in cold PBS and mixed with Matrigel 25%, then injected subcutaneously into left and right flanks above the hind limbs of 6 to 8-week-old mice. When subcutaneous tumors were palpable (˜100 mm^3 in size) the following treatments groups were initiated: (1) vehicle (2) drug. In mice receiving vehicle alone, the vehicle was injected i.p for 7 days. In mice receiving drug, drug (2.5 mg/kg body weight) was injected i.p. for 7 days. Following end of treatment, tumor volume were taken for growth delay studies. Mouse tumors were measured by Vernier calipers. Tumor volume was calculated using the formula: 4/3π×(l×h2), where: l and h are radii of the tumor taken perpendicular to each other. Tumor size was measured three times a week using a caliper.

GABARAP = experiment: Western blot of GABARAP in H1792 cells; assay type: cell-based, human
Experimental: DNA was sheared by sonication. Lysates were kept on ice for 30 min, centrifuged 10 min (13,500×g, 4° C.), and protein concentration of supernatant determined by a Bradford assay (Protein Assay Dye Reagent, Bio-Rad). Lysates were mixed 1:1 with 2× Laemmli sample buffer containing β-mercaptoethanol and heated 5 min at 95° C. Protein was resolved by SDS-PAGE using 4-20% gradient polyacrylamide gels (Bio-Rad), then transferred to nitrocellulose membranes (Bio-Rad) for 2 hr at 100 V in tris-glycine transfer buffer containing 20% methanol. Membranes were blocked at room-temperature in 5% 1×TBST blocking buffer (TBS with 0.1% Tween-20 and 5% non-fat dry milk) for 1 hr with gentle agitation, followed by overnight incubation with primary Ab and gentle shaking at 4° C. The primary Abs were diluted as follows: GAPDH (1:1000, Cell Signaling Technology); GABARAP (1:1000, Cell Signaling Technology); NIX (1:1000, Cell Signaling Technology). Immunodetection was performed with anti-rabbit horseradish-peroxidase-conjugated secondary antibody (1:10000, Cell Signaling Technology). Post-primary Ab incubation, membranes were washed (3× for 10 min in TBST at room-temperature), probed with rabbit HRP tagged secondary antibody (1:3000, Cell Signaling Technology), and processed for chemiluminescence detection using ECL kit (Thermo Scientific). […]

NIX = experiment: Western blot of NIX in H1792 cells; assay type: cell-based, human
Experimental: DNA was sheared by sonication. Lysates were kept on ice for 30 min, centrifuged 10 min (13,500×g, 4° C.), and protein concentration of supernatant determined by a Bradford assay (Protein Assay Dye Reagent, Bio-Rad). Lysates were mixed 1:1 with 2× Laemmli sample buffer containing β-mercaptoethanol and heated 5 min at 95° C. Protein was resolved by SDS-PAGE using 4-20% gradient polyacrylamide gels (Bio-Rad), then transferred to nitrocellulose membranes (Bio-Rad) for 2 hr at 100 V in tris-glycine transfer buffer containing 20% methanol. Membranes were blocked at room-temperature in 5% 1×TBST blocking buffer (TBS with 0.1% Tween-20 and 5% non-fat dry milk) for 1 hr with gentle agitation, followed by overnight incubation with primary Ab and gentle shaking at 4° C. The primary Abs were diluted as follows: GAPDH (1:1000, Cell Signaling Technology); GABARAP (1:1000, Cell Signaling Technology); NIX (1:1000, Cell Signaling Technology). Immunodetection was performed with anti-rabbit horseradish-peroxidase-conjugated secondary antibody (1:10000, Cell Signaling Technology). Post-primary Ab incubation, membranes were washed (3× for 10 min in TBST at room-temperature), probed with rabbit HRP tagged secondary antibody (1:3000, Cell Signaling Technology), and processed for chemiluminescence detection using ECL kit (Thermo Scientific). Chemiluminescence images were acquired using ChemiDoc Touch Imaging System (Bio-Rad).

[4] = test system: LC3B- and NIX-positive puncta in H1792 cells; experiment: Confocal immunofluorescence of autophagosome puncta; assay type: cell-based, human; conditions: H1792, relative to DMSO control
Experimental: Cells were seeded on sterile glass cover slips and grown overnight at 37° C. Cells were then rinsed with cold PBS and fixed in 4% paraformaldehyde (30 min, room temperature). Fixed cells were rinsed in PBS (3×5 min at room-temperature), and permeabilized (15 min in PBS containing 0.1% Triton X-100). Cells were washed in PBS (3× for 5 min at room-temperature) and incubated with blocking buffer (PBS containing 0.3% Triton X-100 and 3% BSA) for 1 hr at room-temperature with gentle shaking. Blocking solution was aspirated, cells washed with ice-cold PBS, and incubated overnight with primary Ab (LC3B or NIX) diluted 1:200 in sterile 0.5% BSA in PBS at 4° C. on the cover slip placed on a glass slide kept inside a humidified 10 cm dish with gentle shaking 60. Cells were washed (3× for 5 min in PBS) and incubated with fluorophore conjugated secondary Ab goat anti-rabbit Alexa Fluor 594 (Abcam) in 2% normal donkey serum at room-temperature for 1 hr in dark. Cells were washed (3× for 5 min in PBS) under low light and mounted on a glass slide in […] Antifade Mounting Medium with DAPI (Vector Laboratories). The following Abs were used (1:200 dilution): rabbit anti-human LC3B (Cell Signaling Technology) and rabbit NIX (Cell Signaling Technology). Slides were imaged on a Zeiss LSM 710 laser scanning confocal microscope and analyzed using NIH Fiji ImageJ2 (version 1.53c).

GABAA receptors = experiment: Single-cell patch-clamp electrophysiology in H1792 cells; assay type: cell-based, human; conditions: 1 μM GABA + 4 μM QH-II-066
Excerpt: Recording solutions were purchased from Nanion Technologies.

[5] = 2.5 mg/kg i.p. for seven consecutive days

SMILES: C#Cc1ccc2c(c1)C(c1ccccc1F)=NCC(=S)N2C [TA-III-50, 7-ethynyl-5-(2-fluorophenyl)-1-methyl-1,3-dihydro-2H-benzo[e][1,4]diazepine-2-thione]
- cytotoxicity (activity) (H1792 cells): poorly or inactive

SMILES: C#Cc1ccc2c(c1)C(c1ccccc1C)=NCC(=O)N2 [TA-II-59, 7-ethynyl-5-(o-tolyl)-1,3-dihydro-2H-benzo[e][1,4]diazepin-2-one]
- cytotoxicity to cancer cells ([1]; LN18, H1792, A375, LLC1): most potent
- cytotoxicity of NOR-variant relative to non-NOR-variant [1]: 2 fold
- potency relative to QH-II-066 ([1]; cytotoxicity): an order of magnitude more potent
- TMRE binding (depolarization) [2]: reduced TMRE binding
- shift in electric charge distribution / depolarization of cancer cells [2]: depolarizing
- tumor control relative to vehicle mice [3, 5]: significant tumor control

SMILES: O=C1CN=C(c2ccccc2)c2cc(Br)cc(Br)c2N1 [TA-III-56, 7,9-dibromo-5-phenyl-1,3-dihydro-2H-benzo[e][1,4]diazepin-2-one]
- cytotoxicity (activity) (H1792 cells): poorly or inactive

SMILES: C#Cc1ccc2c(c1)C(c1ccccc1)=NCC(=S)N2C [TA-III-52, 7-ethynyl-1-methyl-5-phenyl-1,3-dihydro-2H-benzo[e][1,4]diazepine-2-thione]
- cytotoxicity (activity) (H1792 cells): poorly or inactive

SMILES: C#Cc1ccc2c(c1)C(c1ccccc1)=NCC(=O)N2C [QH-II-066]
- GABARAP dimerization (GABARAP; H1792, 72 hours): dimerize
- GABARAP protein level (GABARAP; H1792, 72 hours post-treatment): pronounced accumulation
- dose dependence of induced NIX dimerization (NIX; H1792): dose-dependent
- NIX dimerization (NIX; H1792, 72 hours): dimerize
- NIX protein level (NIX; H1792, 72 hours post-treatment): pronounced accumulation
- LC3B-positive puncta [4]: increased puncta
- NIX-positive puncta [4]: increased puncta
- current response to GABA plus compound over GABA alone (GABAA receptors): enhanced response; also recorded: enhances the current signal

SMILES: CN1C(=O)CN=C(c2ccccc2)c2cc(C3CC3)ccc21 [TA-IV-74, 7-cyclopropyl-1-methyl-5-phenyl-1,3-dihydro-2H-benzo[e][1,4]diazepin-2-one]
- effect compared with the other compounds tested [3, 5]: most significant effect; also recorded: most effective
- tumor control relative to vehicle mice [3, 5]: significant tumor control
- tumor volume ([3]; at 25 days, 2.5 mg/kg i.p. for seven days): no increase in tumor volume

SMILES: O=C1CN=C(c2ccccc2)c2cc(C3CC3)ccc2N1 [SRE-III-35, 7-cyclopropyl-5-phenyl-1,3-dihydro-2H-benzo[e][1,4]diazepin-2-one]
- cytotoxicity of NOR-variant relative to non-NOR-variant [1]: 2 fold
- potency relative to TA-II-59 ([1]; cytotoxicity): equally as potent
- TMRE binding (depolarization) [2]: reduced TMRE binding
- shift in electric charge distribution / depolarization of cancer cells [2]: depolarizing
- tumor control relative to vehicle mice [3, 5]: significant tumor control

SMILES: C#Cc1ccc2c(c1)C(c1ccccc1)=NC(O)C(=O)N2C (stereo not drawn) [TA-III-70, 7-ethynyl-3-hydroxy-1-methyl-5-phenyl-1,3-dihydro-2H-benzo[e][1,4]diazepin-2-one]
- cytotoxicity (activity) (H1792 cells): poorly or inactive

SMILES: O=C1CN=C(c2ccccc2F)c2cc(C3CC3)ccc2N1 [SRE-III-43, 7-cyclopropyl-5-(2-fluorophenyl)-1,3-dihydro-2H-benzo[e][1,4]diazepin-2-one]
- TMRE binding (depolarization) [2]: reduced TMRE binding
- shift in electric charge distribution / depolarization of cancer cells [2]: depolarizing

SMILES: C#Cc1cc(C#C)c2c(c1)C(c1ccccc1)=NCC(=O)N2C [TA-III-62, 7,9-diethynyl-1-methyl-5-phenyl-1,3-dihydro-2H-benzo[e][1,4]diazepin-2-one]
- cytotoxicity (activity) (H1792 cells): poorly or inactive

SMILES: C#Cc1ccc2c(c1)C(c1ccccc1F)=NC(O)C(=O)N2 (stereo not drawn) [MYM-I-59, 7-ethynyl-5-(2-fluorophenyl)-3-hydroxy-1,3-dihydro-2H-benzo[e][1,4]diazepin-2-one]
- cytotoxicity (activity) (H1792 cells): poorly or inactive
